In brackets after ≈: the same amount, converted by molar mass.

The target in data set [1] is estrogen receptor (ERα) in CAMA-1 cells (Homo sapiens (Human), UniProt P03372). The data set can be described thus: Western blotting assay, ER down-regulation in CAMA-1. The class given is cell-based. The settings on record: CAMA-1, 100 nM compound, 48 h, vs 100 nM fulvestrant.
For data set [2], the target named is T1, Estrogen Receptor (ERα) in MCF-7 cells (Homo sapiens (Human), UniProt P03372). The experiment in a line: Western blotting assay, ER down-regulation in MCF-7. The class given is cell-based. As to conditions: MCF-7, 100 nM compound, 48 h, vs 100 nM fulvestrant.
The next data set addresses hERG potassium channel (Homo sapiens (Human), UniProt Q12809).
Data set [3] can be described thus: Thermodynamic solubility (shake-flask). The class given is physicochemical. As to conditions: aqueous phosphate buffer, 25 °C, pH 7.4, aqueous buffer, thermodynamic from solid, phosphate buffer pH 7.4, 24 hours.
Data set [4] can be described thus: Log D (shake flask, 1-octanol/aqueous buffer). The settings on record: 1-octanol/aqueous buffer, pH 7.4, pH 7.4. The class given is physicochemical.
The nature of data set [5]: Human plasma protein binding (equilibrium dialysis). The class given is in vitro ADME.
Experimental: The automated equilibrium dialysis assay in human plasma uses the RED (Rapid Equilibrium Dialysis) Device and sample handling. The assay generally runs over two to three days including delivery of results. After dialysis for 18 hours, plasma and buffer samples are prepared for analysis by liquid chromatography and mass spectrometry. Samples are generally tested in singlicates and quantified by LC/MSMS by using a 7-point calibration curve in plasma. The compounds are pooled together in plasma pools up to 10 compounds. Three reference compounds are used in each run, Propranolol, Metoprolol and Warfarin. Warfarin is used as a control in each pool and Propranolol and Metoprolol are placed randomly in each run. An in-house Excel macro is used for preparation of files for the robot and the mass spectrometer and is also used for the calculations of fraction unbound (fu %) in plasma.
Data set [6] addresses T1, Estrogen Receptor (ERα) in MCF-7 cells. The data set can be described thus: MCF-7 ER down-regulation assay (immuno-fluorescence). The class given is cell-based.
Data set [7] has as its target recombinant human Estrogen Receptor alpha ligand binding domain (ER alpha-LBD (GST)) (Homo sapiens (Human), UniProt P03372). The experiment in a line: ERα binding assay (LanthaScreen TR-FRET competition).

estrogen receptor (ERα) in CAMA-1 cells, sequence (P03372 whole entry): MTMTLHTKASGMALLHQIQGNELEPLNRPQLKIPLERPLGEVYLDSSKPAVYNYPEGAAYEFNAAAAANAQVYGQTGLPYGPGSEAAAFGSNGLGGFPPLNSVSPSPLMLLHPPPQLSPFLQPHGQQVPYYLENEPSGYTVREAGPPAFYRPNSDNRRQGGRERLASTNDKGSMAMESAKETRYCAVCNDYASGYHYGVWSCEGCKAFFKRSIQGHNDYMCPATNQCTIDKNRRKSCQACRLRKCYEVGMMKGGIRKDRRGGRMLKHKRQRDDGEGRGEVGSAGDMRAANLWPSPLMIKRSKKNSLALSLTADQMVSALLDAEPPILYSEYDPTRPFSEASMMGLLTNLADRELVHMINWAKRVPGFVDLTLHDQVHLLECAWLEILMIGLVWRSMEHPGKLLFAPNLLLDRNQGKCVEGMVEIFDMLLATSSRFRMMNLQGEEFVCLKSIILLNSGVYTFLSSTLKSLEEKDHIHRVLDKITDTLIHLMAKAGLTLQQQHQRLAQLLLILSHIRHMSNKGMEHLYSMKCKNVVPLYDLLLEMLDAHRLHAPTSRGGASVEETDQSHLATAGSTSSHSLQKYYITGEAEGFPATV
T1 sequence (P03372 whole entry): as above
recombinant human Estrogen Receptor alpha ligand binding domain (ER alpha-LBD (GST)), sequence (P03372 307-554): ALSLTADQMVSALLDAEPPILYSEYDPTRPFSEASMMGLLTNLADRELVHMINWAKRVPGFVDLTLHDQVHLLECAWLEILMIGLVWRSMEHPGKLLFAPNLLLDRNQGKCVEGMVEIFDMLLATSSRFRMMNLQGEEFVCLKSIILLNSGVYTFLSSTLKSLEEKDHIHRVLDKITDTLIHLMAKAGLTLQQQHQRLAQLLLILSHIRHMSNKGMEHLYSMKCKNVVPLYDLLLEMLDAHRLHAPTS
hERG potassium channel, sequence (Q12809 whole entry): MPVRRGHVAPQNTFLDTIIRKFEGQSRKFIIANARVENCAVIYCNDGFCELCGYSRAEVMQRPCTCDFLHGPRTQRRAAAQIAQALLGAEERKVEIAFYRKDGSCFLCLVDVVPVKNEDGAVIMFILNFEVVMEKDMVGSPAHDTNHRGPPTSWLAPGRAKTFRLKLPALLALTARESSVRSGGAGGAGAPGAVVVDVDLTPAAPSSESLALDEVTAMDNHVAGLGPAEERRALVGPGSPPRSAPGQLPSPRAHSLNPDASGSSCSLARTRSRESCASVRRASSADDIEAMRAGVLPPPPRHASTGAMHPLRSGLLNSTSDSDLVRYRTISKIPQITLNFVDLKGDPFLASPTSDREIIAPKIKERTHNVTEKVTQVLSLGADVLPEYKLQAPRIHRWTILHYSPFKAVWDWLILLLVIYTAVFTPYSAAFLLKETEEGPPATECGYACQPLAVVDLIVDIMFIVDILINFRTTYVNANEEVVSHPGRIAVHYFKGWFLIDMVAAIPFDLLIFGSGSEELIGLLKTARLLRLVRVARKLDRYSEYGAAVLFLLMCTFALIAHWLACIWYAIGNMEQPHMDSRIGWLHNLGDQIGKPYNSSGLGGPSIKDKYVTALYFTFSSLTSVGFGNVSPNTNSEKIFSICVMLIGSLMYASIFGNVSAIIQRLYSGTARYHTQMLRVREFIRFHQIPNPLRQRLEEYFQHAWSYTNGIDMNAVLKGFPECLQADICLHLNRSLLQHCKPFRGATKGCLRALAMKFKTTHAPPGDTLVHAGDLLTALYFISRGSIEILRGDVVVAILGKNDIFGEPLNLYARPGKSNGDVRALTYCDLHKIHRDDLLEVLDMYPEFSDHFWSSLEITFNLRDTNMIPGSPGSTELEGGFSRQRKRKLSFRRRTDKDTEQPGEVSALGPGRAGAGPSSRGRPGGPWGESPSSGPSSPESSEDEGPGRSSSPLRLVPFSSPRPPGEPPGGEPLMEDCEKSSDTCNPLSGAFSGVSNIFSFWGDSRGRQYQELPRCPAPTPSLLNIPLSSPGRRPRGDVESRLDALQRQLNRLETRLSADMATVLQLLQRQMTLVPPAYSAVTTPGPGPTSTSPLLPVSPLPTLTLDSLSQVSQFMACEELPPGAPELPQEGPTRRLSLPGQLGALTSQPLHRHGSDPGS

Turning to `C[C@@H]1Cc2c([nH]c3ccccc23)[C@@H](c2cccc(OCCNCCCF)c2)N1CC1(F)COC1` [Example 1, 3-Fluoro-N-(2-(3-((1R,3R)-2-((3-fluorooxetan-3-yl)methyl)-3-methyl-2,3,4,9-tetrahydro-1H-pyrido[3,4-b]indol-1-yl)phenoxy)ethyl)propan-1-amine], the “CAMA1 Western % ER deg vs Fv” value in data set [1] was determined as 66%. Moreover, the “MCF7 Western % ER deg vs Fv” value in data set [2] came to 79%. Moreover, at hERG potassium channel, 4400 nM corresponded to half-maximal inhibition (IC50). The compound also gave a solubility at 24 h in data set [3] of 303 µM (≈ 142 µg/mL).

On to `COc1ccc(OCCNCCCF)cc1[C@@H]1c2[nH]c3ccccc3c2C[C@@H](C)N1CC1(F)COC1` [Example 4, 3-Fluoro-N-(2-(3-((1R,3R)-2-((3-fluorooxetan-3-yl)methyl)-3-methyl-2,3,4,9-tetrahydro-1H-pyrido[3,4-b]indol-1-yl)-4-methoxyphenoxy)ethyl)propan-1-amine], for which, in data set [1], the “CAMA1 Western % ER deg vs Fv” value was 75%. The “MCF7 Western % ER deg vs Fv” value in data set [2] is recorded as 56%. In data set [3], this compound registered a solubility at 24 h of 543 µM (≈ 271 µg/mL).

Regarding `COc1ccc(OCCNCCCF)cc1[C@@H]1c2[nH]c3ccccc3c2C[C@@H](C)N1CC(F)F` [Example 6, N-(2-(3-((1R,3R)-2-(2,2-difluoroethyl)-3-methyl-2,3,4,9-tetrahydro-1H-pyrido[3,4-b]indol-1-yl)-4-methoxyphenoxy)ethyl)-3-fluoropropan-1-amine], the “CAMA1 Western % ER deg vs Fv” value in data set [1] was found to be 81%. In data set [2], the “MCF7 Western % ER deg vs Fv” value was 97%. The solubility at 24 h in data set [3] came to 154 µM (≈ 73.2 µg/mL).

With `COc1ccc(OCCNCCCF)cc1[C@@H]1c2[nH]c3ccccc3c2C[C@@H](C)N1CC(F)(F)F` [Example 7, 3-Fluoro-N-(2-(4-methoxy-3-((1R,3R)-3-methyl-2-(2,2,2-trifluoroethyl)-2,3,4,9-tetrahydro-1H-pyrido[3,4-b]indol-1-yl)phenoxy)ethyl)propan-1-amine], in data set [4], the pH-dependent lipophilicity (logD) turned out to be 3.7. Also, the “Human plasma protein binding (% free)” value in data set [5] turned out to be 1.5 % free. Besides, the “CAMA1 Western % ER deg vs Fv” value in data set [1] stood at 90%. In addition, the IC50 in data set [6] stood at 0.12 nM; in data set [7], 1.5 nM; against hERG potassium channel, 3800 nM. Also, the “MCF7 Western % ER deg vs Fv” value in data set [2] is recorded as 100%. In addition, in data set [3], the solubility at 24 h came out at 35 µM (≈ 17.3 µg/mL).

Turning to `COc1ccc(OCCNCCCF)cc1[C@@H]1c2[nH]c3ccccc3c2C[C@@H](C)N1CC(F)(F)CO` [Example 8, 2,2-Difluoro-3-((1R,3R)-1-(5-(2-((3-fluoropropyl)amino)ethoxy)-2-methoxyphenyl)-3-methyl-1,3,4,9-tetrahydro-2H-pyrido[3,4-b]indol-2-yl)propan-1-ol], the “CAMA1 Western % ER deg vs Fv” value in data set [1] was 93%. Besides, the “MCF7 Western % ER deg vs Fv” value in data set [2] stood at 98%. Besides, the solubility at 24 h in data set [3] was found to be 617 µM (≈ 312 µg/mL).

Turning to `COc1cnc(OCCNCCCF)cc1[C@@H]1c2[nH]c3ccccc3c2C[C@@H](C)N1CC(F)(F)F` [Example 12, 3-fluoro-N-(2-((5-methoxy-4-((1R,3R)-3-methyl-2-(2,2,2-trifluoroethyl)-2,3,4,9-tetrahydro-1H-pyrido[3,4-b]indol-1-yl)pyridin-2-yl)oxy)ethyl)propan-1-amine], the “CAMA1 Western % ER deg vs Fv” value in data set [1] was 89%. For the same compound, the IC50 in data set [6] came to 0.059 nM; in data set [7], 0.62 nM; against hERG potassium channel, 8200 nM. Further, in data set [2], the “MCF7 Western % ER deg vs Fv” value was found to be 92%.

Regarding `C[C@@H]1Cc2c([nH]c3ccccc23)[C@@H](c2cccc(OCCNCCCF)c2)N1CC(F)(F)F` [Example 16, 3-fluoro-N-(2-(3-((1R,3R)-3-methyl-2-(2,2,2-trifluoroethyl)-2,3,4,9-tetrahydro-1H-pyrido[3,4-b]indol-1-yl)phenoxy)ethyl)propan-1-amine], in data set [1], the “CAMA1 Western % ER deg vs Fv” value turned out to be 83%. The “MCF7 Western % ER deg vs Fv” value in data set [2] stood at 89%. Further, the solubility at 24 h in data set [3] worked out at 74 µM (≈ 34.3 µg/mL).

In the case of `CCc1ccc(OCCNCCCF)cc1[C@@H]1c2[nH]c3ccccc3c2C[C@@H](C)N1CC(F)(F)F` [Example 21, N-(2-(4-ethyl-3-((1R,3R)-3-methyl-2-(2,2,2-trifluoroethyl)-2,3,4,9-tetrahydro-1H-pyrido[3,4-b]indol-1-yl)phenoxy)ethyl)-3-fluoropropan-1-amine], in data set [4], the pH-dependent lipophilicity (logD) worked out at 4.6. The “Human plasma protein binding (% free)” value in data set [5] worked out at 0.10 % free. In addition, in data set [1], the “CAMA1 Western % ER deg vs Fv” value is listed as 95%. Also, the half-inhibitory concentration (IC50) in data set [6] came to 1.6 nM; in data set [7], 2.6 nM. Also, the “MCF7 Western % ER deg vs Fv” value in data set [2] came to 99%. Further, the solubility at 24 h in data set [3] was determined as 3 µM (≈ 1.47 µg/mL).

Compound `C[C@@H]1Cc2c([nH]c3ccccc23)[C@@H](c2cc(OCCNCCCF)ccc2Cl)N1CC(F)(F)F` [Example 22, N-(2-(4-chloro-3-((1R,3R)-3-methyl-2-(2,2,2-trifluoroethyl)-2,3,4,9-tetrahydro-1H-pyrido[3,4-b]indol-1-yl)phenoxy)ethyl)-3-fluoropropan-1-amine] came in with a logD in data set [4] of 4.2. Moreover, the “Human plasma protein binding (% free)” value in data set [5] amounted to 0.61 % free. For the same compound, the “CAMA1 Western % ER deg vs Fv” value in data set [1] was 96%. Moreover, the figures for the 50% inhibitory concentration (IC50) in data set [6] and in data set [7] were 0.12 nM and 1.4 nM, respectively. Further, in data set [2], the “MCF7 Western % ER deg vs Fv” value is given as 96%. In addition, the solubility at 24 h in data set [3] was 0.7 µM (≈ 0.349 µg/mL).

For `C[C@@H]1Cc2c([nH]c3ccccc23)[C@@H](c2c(F)ccc(OCCNCCCF)c2F)N1C[C@H](C)C(=O)O` [Example 58, (S)-3-((1R,3R)-1-(2,6-difluoro-3-(2-((3-fluoropropyl)amino)ethoxy)phenyl)-3-methyl-1,3,4,9-tetrahydro-2H-pyrido[3,4-b]indol-2-yl)-2-methylpropanoic acid], the “CAMA1 Western % ER deg vs Fv” value in data set [1] came to 83%. The “MCF7 Western % ER deg vs Fv” value in data set [2] is reported as 76%. In data set [3], this compound gave a solubility at 24 h of over 1000 µM.

`C[C@@H]1Cc2c([nH]c3ccccc23)[C@@H](c2nccc(OCCNCCCF)c2F)N1CC(F)(F)F` [Example 92, 3-fluoro-N-(2-((3-fluoro-2-((1S,3R)-3-methyl-2-(2,2,2-trifluoroethyl)-2,3,4,9-tetrahydro-1H-pyrido[3,4-b]indol-1-yl)pyridin-4-yl)oxy)ethyl)propan-1-amine]: the logD in data set [4] is 2.7. Also, the “CAMA1 Western % ER deg vs Fv” value in data set [1] is recorded as 91%. For the same compound, the IC50 came to 0.4 nM in data set [6], 1.6 nM in data set [7] and 23000 nM against hERG potassium channel. For the same compound, in data set [2], the “MCF7 Western % ER deg vs Fv” value was determined as 93%. Also, the solubility at 24 h in data set [3] stood at 468 µM (≈ 226 µg/mL).

Consider `Cc1c(OCCNCCCF)ncc(F)c1[C@@H]1c2[nH]c3ccccc3c2C[C@@H](C)N1CC(F)(F)CO` [Example 110, 2,2-difluoro-3-((1R,3R)-1-(5-fluoro-2-(2-((3-fluoropropyl)amino)ethoxy)-3-methylpyridin-4-yl)-3-methyl-1,3,4,9-tetrahydro-2H-pyrido[3,4-b]indol-2-yl)propan-1-ol], for which the pH-dependent lipophilicity (logD) in data set [4] amounted to 3.1. Moreover, the “CAMA1 Western % ER deg vs Fv” value in data set [1] was determined as 83%. The half-inhibitory concentration (IC50) was determined as 0.045 nM in data set [6], 0.43 nM in data set [7] and 2800 nM against hERG potassium channel. For the same compound, the “MCF7 Western % ER deg vs Fv” value in data set [2] was 91%. The solubility at 24 h in data set [3] was found to be 939 µM (≈ 478 µg/mL).

Compound `C[C@@H]1Cc2c([nH]c3ccccc23)[C@@H](c2c(F)cnc(OCCNCCCF)c2Cl)N1CC(F)(F)CO` [Example 111, 3-((1R,3R)-1-(3-chloro-5-fluoro-2-(2-((3-fluoropropyl)amino)ethoxy)pyridin-4-yl)-3-methyl-1,3,4,9-tetrahydro-2H-pyrido[3,4-b]indol-2-yl)-2,2-difluoropropan-1-ol] had a logD in data set [4] of 3.1. The “Human plasma protein binding (% free)” value in data set [5] came out at 1.4 % free. Besides, the “CAMA1 Western % ER deg vs Fv” value in data set [1] amounted to 92%. In addition, the IC50 came out at 0.07 nM in data set [6] and 0.6 nM in data set [7]. Besides, in data set [2], the “MCF7 Western % ER deg vs Fv” value is listed as 84%. In addition, the solubility at 24 h in data set [3] was 469 µM (≈ 248 µg/mL).

Consider `Cc1c(OCCNCCC(F)F)ccc(F)c1[C@@H]1c2[nH]c3ccccc3c2C[C@@H](C)N1C[C@H](C)C(=O)O` [Example 124, (S)-3-((1R,3R)-1-(3-(2-((3,3-Difluoropropyl)amino)ethoxy)-6-fluoro-2-methylphenyl)-3-methyl-1,3,4,9-tetrahydro-2H-pyrido[3,4-b]indol-2-yl)-2-methylpropanoic acid], for which the “CAMA1 Western % ER deg vs Fv” value in data set [1] is 82%. The IC50 in data set [6] was determined as 0.68 nM; in data set [7], 3.9 nM. For the same compound, the “MCF7 Western % ER deg vs Fv” value in data set [2] is given as 93%.

As for `Cc1c(OCCNCCCF)ccc(F)c1[C@@H]1c2[nH]c3ccccc3c2C[C@@H](C(F)F)N1C[C@H](C)C(=O)O` [Example 137, (S)-3-((1R,3S)-3-(difluoromethyl)-1-(6-fluoro-3-(2-((3-fluoropropyl)amino)ethoxy)-2-methylphenyl)-1,3,4,9-tetrahydro-2H-pyrido[3,4-b]indol-2-yl)-2-methylpropanoic acid], in data set [1], the “CAMA1 Western % ER deg vs Fv” value was 95%. In addition, the IC50 stood at 0.52 nM in data set [6] and 1.7 nM in data set [7]. The “MCF7 Western % ER deg vs Fv” value in data set [2] was 90%.

Consider `C[C@@H](CN1[C@H](c2c(F)cnc(OCCNCCCF)c2Cl)c2[nH]c3ccccc3c2C[C@H]1C(F)(F)F)C(=O)O` [Example 142, (S)-3-((1R,3S)-1-(3-chloro-5-fluoro-2-(2-((3-fluoropropyl)amino)ethoxy)pyridin-4-yl)-3-(trifluoromethyl)-1,3,4,9-tetrahydro-2H-pyrido[3,4-b]indol-2-yl)-2-methylpropanoic acid], for which the “CAMA1 Western % ER deg vs Fv” value in data set [1] came out at 80%. In addition, the concentration for half-maximal inhibition (IC50) in data set [6] came to 0.95 nM; in data set [7] it was 1.5 nM. In addition, in data set [2], the “MCF7 Western % ER deg vs Fv” value is 85%.

For the origin of these results see US10221173B2, “Chemical compounds” (AstraZeneca AB, priority 2017, dated 2019).
